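Five concentrations, 48 hours, 96-well plates. GI50 is the concentration that inhibits growth by half.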 The source made the active and inactive calls. No stated cut-off is given here; in the data, active = GI50 up to about 1.1 µM and inactive = higher.
Columns and labels:
Assay in all cases: DTP human tumour cell line panel, 48 h
786-0 = tested on: 786-0
SN12C = tested on: SN12C
MDA-MB-231 = tested on: MDA-MB-231
MCF7 = tested on: MCF7
SK-OV-3 = tested on: SK-OV-3
NCI-H460 = tested on: NCI-H460
NCI/ADR-RES = tested on: NCI/ADR-RES
SNB-19 = tested on: SNB-19
SF-268 = tested on: SF-268
MDA-MB-435 = tested on: MDA-MB-435
ACHN = tested on: ACHN
M14 = tested on: M14
K562 = tested on: K562
A498 = tested on: A498
A549 = tested on: A549
SK-MEL-2 = tested on: SK-MEL-2
HL-60 = tested on: HL-60
SF-539 = tested on: SF-539
RXF 393 = tested on: RXF 393
CCRF-CEM = tested on: CCRF-CEM

Measured: GI50

O=C1CCC(=O)N1n1c(Cc2ccc(Cl)cc2)n[nH]c1=O
inactive: 786-0 > 100 µM | SN12C > 100 µM | MDA-MB-231 > 100 µM | MCF7 > 100 µM | SK-OV-3 > 100 µM | NCI-H460 > 100 µM | NCI/ADR-RES > 100 µM | SNB-19 > 100 µM | SF-268 > 100 µM | MDA-MB-435 > 100 µM | ACHN > 100 µM | M14 > 100 µM | K562 > 100 µM | A498 > 100 µM | A549 > 100 µM | SK-MEL-2 > 100 µM | HL-60 > 100 µM | SF-539 > 100 µM

COc1cc(-c2cc(=O)c3c(OC)c(OC)c(OC)cc3o2)c(OC)c(OC)c1OC
inactive: RXF 393 52.1 µM | 786-0 > 75 µM | SN12C > 75 µM | MDA-MB-231 63.4 µM | MCF7 > 75 µM | CCRF-CEM 65.2 µM | SK-OV-3 > 75 µM | NCI-H460 > 75 µM | NCI/ADR-RES 36.9 µM | SNB-19 > 75 µM | SF-268 > 75 µM | MDA-MB-435 > 75 µM | ACHN > 75 µM | M14 > 75 µM | K562 39.1 µM | A549 > 75 µM | SK-MEL-2 45.6 µM | HL-60 16.9 µM | SF-539 > 75 µM

CC(=O)Nc1ccc(Nc2cc(O)nc(O)n2)cc1
inactive: RXF 393 > 100 µM | 786-0 > 100 µM | SN12C > 100 µM | MDA-MB-231 > 100 µM | MCF7 > 100 µM | NCI-H460 > 100 µM | NCI/ADR-RES > 100 µM | SNB-19 > 100 µM | SF-268 > 100 µM | MDA-MB-435 > 100 µM | ACHN > 100 µM | M14 > 100 µM | K562 > 100 µM | A498 > 100 µM | A549 > 100 µM | HL-60 > 100 µM | SF-539 > 100 µM

C/C=C\C(CC(=O)NCCc1cn(C(=O)OCc2ccccc2)c2ccccc12)CC(=O)OC (stereo unspecified)
inactive: RXF 393 56.4 µM | 786-0 > 100 µM | MDA-MB-231 > 100 µM | MCF7 46.6 µM | SK-OV-3 > 100 µM | NCI-H460 > 100 µM | NCI/ADR-RES 41.8 µM | SNB-19 63.1 µM | SF-268 > 100 µM | MDA-MB-435 42.3 µM | ACHN > 100 µM | M14 86.7 µM | K562 71.1 µM | A498 > 100 µM | A549 50.5 µM | SK-MEL-2 > 100 µM

C=CC[C@H](O)[C@@](NC(=O)OCc1ccccc1)(Sc1ccc(C)cc1)C(F)(F)F
inactive: RXF 393 23.3 µM | 786-0 16.9 µM | SN12C 17.3 µM | MDA-MB-231 24.8 µM | MCF7 23.5 µM | NCI-H460 30.7 µM | NCI/ADR-RES 31.1 µM | SNB-19 32.6 µM | SF-268 18.1 µM | MDA-MB-435 24.1 µM | ACHN > 100 µM | M14 20.7 µM | K562 35 µM | A498 65.3 µM | A549 27.7 µM | SK-MEL-2 26.8 µM | HL-60 11.5 µM | SF-539 14.6 µM

O=C(O)c1ccc(/N=C(\C(=N\c2ccc(C(=O)O)cc2)c2ccccc2)c2ccccc2)cc1
inactive: RXF 393 > 100 µM | 786-0 > 100 µM | SN12C > 100 µM | MDA-MB-231 > 100 µM | MCF7 > 100 µM | SK-OV-3 > 100 µM | NCI-H460 > 100 µM | NCI/ADR-RES > 100 µM | SNB-19 > 100 µM | SF-268 > 100 µM | MDA-MB-435 > 100 µM | ACHN > 100 µM | M14 > 100 µM | K562 > 100 µM | A498 > 100 µM | A549 > 100 µM | SK-MEL-2 > 100 µM

COc1ccc2c(c1)C1c3ccccc3CCN1CCC2 (stereo unspecified)
inactive: RXF 393 47.6 µM | 786-0 42.1 µM | SN12C 71.1 µM | MDA-MB-231 35.8 µM | MCF7 41.1 µM | CCRF-CEM 38.5 µM | SK-OV-3 36.6 µM | NCI/ADR-RES 31.2 µM | SNB-19 55.2 µM | SF-268 56.6 µM | MDA-MB-435 19.9 µM | ACHN 64.9 µM | M14 32.1 µM | K562 33 µM | A498 69.3 µM | A549 51.2 µM | SK-MEL-2 23.1 µM | SF-539 47.3 µM

O=C(O)c1nc2cc(C(F)(F)F)ccc2nc1Nc1ccc(Cl)c(Cl)c1
inactive: RXF 393 20.9 µM | 786-0 15.9 µM | MDA-MB-231 20.7 µM | MCF7 23.8 µM | CCRF-CEM > 10 µM | SK-OV-3 16.7 µM | NCI-H460 13.5 µM | NCI/ADR-RES 10.5 µM | SNB-19 8.95 µM | SF-268 16.8 µM | MDA-MB-435 5.12 µM | ACHN 11.6 µM | M14 13 µM | K562 14.6 µM | A498 15.8 µM | A549 8.79 µM | SK-MEL-2 2.96 µM | SF-539 11.4 µM

CCOC(=O)C1=CN2C(=N[C@H]3CCCC[C@@H]32)NC1=O
inactive: 786-0 > 100 µM | SN12C > 100 µM | MDA-MB-231 > 100 µM | MCF7 > 100 µM | CCRF-CEM > 100 µM | SK-OV-3 > 100 µM | NCI-H460 > 100 µM | NCI/ADR-RES > 100 µM | SNB-19 > 100 µM | SF-268 > 100 µM | MDA-MB-435 > 100 µM | ACHN > 100 µM | M14 > 100 µM | K562 > 100 µM | A498 > 100 µM | A549 > 100 µM | SK-MEL-2 > 100 µM | HL-60 > 100 µM | SF-539 > 100 µM

CCN(CC)N1C(=O)[N-][N+](CC)(CC)C1=O
inactive: 786-0 > 100 µM | SN12C > 100 µM | MDA-MB-231 > 100 µM | MCF7 > 100 µM | CCRF-CEM > 100 µM | SK-OV-3 > 100 µM | NCI-H460 > 100 µM | NCI/ADR-RES > 100 µM | SNB-19 > 100 µM | SF-268 > 100 µM | MDA-MB-435 > 100 µM | ACHN > 100 µM | M14 > 100 µM | A498 > 100 µM | A549 > 100 µM | SK-MEL-2 > 100 µM | HL-60 > 100 µM | SF-539 > 100 µM

COc1ccc([C@H]2C=C(c3cc(F)c(Cl)cc3Cl)N=c3s/c(=C\c4ccc(-c5ccc(Cl)cc5Cl)o4)c(=O)n32)cc1
inactive: RXF 393 39.6 µM | 786-0 42.4 µM | SN12C 47.8 µM | MDA-MB-231 25.5 µM | MCF7 26.9 µM | SK-OV-3 21.5 µM | NCI-H460 48.4 µM | NCI/ADR-RES 44.5 µM | SNB-19 31.9 µM | SF-268 35.6 µM | MDA-MB-435 30.5 µM | ACHN > 100 µM | M14 55.3 µM | K562 38.8 µM | A498 2.48 µM | A549 > 100 µM | SK-MEL-2 20.1 µM | SF-539 34.6 µM

From ChEMBL document CHEMBL1201862, “PubChem BioAssay data set” (2004)
